Tests used:
[1] = system: radioresistant osteosarcoma cell lines (HS-Os-1); conditions: 0.1 mM in culture solution, radiation in the order of 10 Gy; cited from earlier work
[2] = Pain on subcutaneous injection in normal volunteers; assay type: in vivo, human; conditions: 1 ml subcutaneous, pH 6.8, 0.5% hydrogen peroxide
Method: (2) Based on the above results, the following experiment was conducted on five normal volunteers.
When a 27-gage thin needle was used to subcutaneously inject 1 ml of physiological saline (pH 6.8) containing 0.5% hydrogen peroxide into the inside of the left arms of five normal volunteers, all complained of severe pain limited to the injection site that lasted about 1 hour.

[3] = system: inoperable locally advanced malignant melanoma
Method: For a case of inoperable locally advanced malignant melanoma, sterilized cut cotton soaked in a hydrogen peroxide solution having a concentration of approximately 3 weight percent was used as a bolus, and irradiation by an electron beam from a linear accelerator (radiosensitization therapy) was then conducted.
Specifically, sterilized cut cotton soaked in a hydrogen peroxide solution having a concentration of approximately 3% was applied to the affected area of the locally advanced malignant melanoma as a bolus, and irradiation was conducted three times a week for four weeks, with each radiation dose amounting to 4 Gy (12 times, for a total radiation dosage of 48 Gy).

[4] = Pain on intratumoral injection into SCCVII tumors of mice; assay type: in vivo, C3H/He mouse; conditions: 1 ml, 27-gage needle, pH 6.8, 0.5% hydrogen peroxide, five mice per group, tumor about 10 mm
Method: (1) Mouse squamous epithelium cancer cells (SCCVII tumor cells) were transplanted into the right leg of the same kind of C3H/He mouse (8-week-old female), and the following experiment was conducted when the tumor had grown to about 10 mm in diameter.
When a 27-gage thin needle was used to intratumorally inject 1 ml of physiological saline (pH 6.8) containing 0.5% hydrogen peroxide into the tumors of five mice, the mice were all observed to feel strong pain, violently resisting the injection.

pain at the injection site ([2]; inside of arm, 27-gage needle, five volunteers): severe pain
duration of pain at the injection site ([2]; left arm): about 1 hour
pain of the intratumoral injection [4]: strong pain
Compound: OO [hydrogen peroxide]
effect on irradiated cells (reactive oxygen species, apoptosis) [1]: giving rise to apoptosis
length of malignant melanoma ([3]; 2 weeks after RT, approximately 3% solution on cut cotton as bolus, 4 Gy x 12, total 48 Gy, approximately 8 cm before radiotherapy): approximately 5 cm
tumor outcome (summary in disclosure) ([3]; approximately 3 weight percent solution as bolus, 4 Gy three times a week, total 48 Gy): disappearance of the tumor
tumor outcome ([3]; three months after termination of radiotherapy, approximately 3% solution as bolus, total 48 Gy): almost disappeared

From patent US20190262261A1, “RADIATION SENSITIZER OR ANTI-CANCER CHEMOTHERAPY SENSITIZER” (priority 2006, published 2019)
